Results on 11 molecules are retold here after patent publication US7951789B2 (priority 2006, dated 2011).

Several values for one entry are separate records, joined by “and”; a condition that tells them apart may be missing. Equal entries are not always repeated. A value given as a limit tells only on which side of the number the result lay.

The subject of series [1] is HCV Conl subgenomic replicon (GS4.1 cells). The experiment in a line: HCV replicon assay (NS4A ELISA, HCV ELISA 2). It is filed as cell-based. Conditions: Hepatitis C virus; GS4.1 cells, 72 hours, NS4A ELISA; read-out: HCV ELISA 2 EC50. On the procedure:
(§1) Huh-7 cells containing HCV Conl subgenomic replicon (GS4.1 cells), (C. Seeger; Fox Chase University, Philadelphia, Pa., USA), are grown in Dulbecco's Modified Eagle Medium (DMEM) supplemented with 10% fetal bovine serum (FBS), 2 mM L-glutamine, 110 mg/L sodium pyruvate, 1×non-essential amino acids, 100 U/mL penicillin-streptomycin and 0.5 mg/mL G418 (Invitrogen). For dose-response testing, the cells are seeded in 96-well plates at 7.5×10^3 cells/well in a volume of 50 μL and incubated at 37° C./5% CO2. Three hours after plating, 50 μL of ten 2-fold serial dilutions of compounds (highest concentration, 75 μM) are added and cell cultures were incubated at 37° C./5% CO2 in the presence of 0.5% DMSO. Alternatively, compounds are tested at a single concentration of 15 μM. In all cases, Huh-7 cells lacking the HCV replicon served as negative control. The cells are incubated in the presence of compounds for 72 hours after which they were monitored for expression of the NS4A protein by enzyme-linked immunosorbent assay (ELISA). For this, the plates were then fixed for 1 min with 1:1 acetone:methanol, washed twice with phosphate-buffered saline (PBS), 0.1% Tween 20, blocked for 1 hour at room temperature with TNE buffer containing 10% FBS and then incubated for 2 h at 37° C. with the anti-NS4A mouse monoclonal antibody A-236 (ViroGen) diluted in the same buffer. After washing three times with PBS, 0.1% Tween 20, the cells are incubated 1 hour at 37° C. with anti-mouse immunoglobulin G-peroxidase conjugate in TNE, 10% FBS. After washing as described above, the reaction is developed with O-phenylenediamine (Zymed). The reaction is stopped after 30 minutes with […] and the absorbance is read at 492 nm using a Sunrise Tecan spectrophotometer. EC50 values are determined from the % inhibition versus concentration data using a sigmoidal non-linear regression analysis based on four parameters with Tecan Magellan software. […] For cytotoxicity evaluation, GS4.1 cells are treated with compounds as described above and cellular viability was monitored using a Cell Titer 96 AQueous One Solution Cell Proliferation Assay (Promega). CC50 values are determined from the % cytotoxicity versus concentration data with Tecan Magellan software as described above.

Series [2] in a line: Cytotoxicity evaluation in GS4.1 cells (Cell Titer 96 AQueous One Solution). The note with it: human, 72 hours. The class given is cell-based. On the procedure:
as §1

A short description of series [3]: In vivo studies in rat: distribution of A550 and LddATP in the liver. Conditions: male rats. On the procedure: Distribution of NM-204 (the compound of Example 1 (Hydroxy-tBuSATE N-benzylphosphoramidate derivative of L-ddA) (A550) in the rat liver was evaluated following a single intravenous (I.V.) or oral administration of A550 (NM-204) at a dose of 20 (oral) or 10 (I.V.) mg/Kg body weight. The dose solutions were prepared on the same day prior to dose administration.
At the specified time point (1 and 3 hours for IV animals or 1, 3 and 8 hours for oral animals), each animal was euthanized by CO2 gas followed by exsanguination via the abdominal vein. Livers were collected immediately after sacrifice, flash frozen in liquid nitrogen, placed on dry ice, and later stored at −70° C., before being analyzed.
Control rat liver samples were taken from whole frozen livers (Bioreclamation, Inc. Hicksville, N.Y.) with the aid of a tissue coring utensil (Harris Unicore, 8.0 mm, VWR,). Each ˜0.1 g sample was placed in individual 2 mL poly vials with 0.940 mL of 80% MeOH/20% DIH2O and homogenates were prepared using a mechanical tissue disruptor (Tissue Master, Omni-International, Inc, Marietta Ga.). The vials received a 10 μl aliquot of a working stock solution and a 50 μl aliquot of the ISTD before vortexing for ˜30 sec. The mixtures were stored overnight at −20° C. and the next day were removed for 10 min of centrifugation in a benchtop centrifuge. Each supernatant was transferred to individual centrifugation filtration units (0.45 μm) and the resulting filtrates were transferred to HPLC vials for the LC/MS/MS analysis. The final concentrations of ddATP in the calibration standards was 1000, 500, 250, 125, 50, and 0 pmol/ml. Each calibration standard was directly injected in a 50 μL volume onto the ion-exchange column for analysis. Standard curve analysis of calibration standards from control liver extracts was conducted.
Analysis of ddATP was done by an ion-exchange chromatography method with on-line positive ionization ESI-MS/MS detection in multiple reaction monitoring (MRM) detection mode. […] This is equivalent to a range of […] per gram liver by the sample preparation employed. The HPLC MS MS conditions described in Example 5 were utilized.

[4] abbreviates: IV dose 10 mg/kg, 1 hr, individual animals, 10 mg/kg.
The mark [5] stands for this setting: IV dose 10 mg/kg, 3 hrs, individual animals, 10 mg/kg.
Setting [6] is: Oral dose 20 mg/kg, 1 hr, individual animals, 20 mg/kg.
Setting [7] is: Oral dose 20 mg/kg, 3 hrs, individual animals, 20 mg/kg.
The mark [8] stands for this setting: Oral dose 20 mg/kg, 8 hrs, individual animals, 20 mg/kg.

Consider `C[C@@]1(O)[C@H](O)[C@@H](CO)O[C@H]1n1ccc(N)nc1=O` [A634 (NM107), 2′methyl cytidine, reference compound], for which, in series [1], the EC50 was 1 to 10 µM. The CC50 in series [2] was above 75 µM.

Regarding `C[C@@]1(O)[C@H](O)[C@@H](CO)O[C@H]1n1cnc2c(=O)[nH]c(N)nc21` [A844 (NM 108), 2′-C-methylguanosine, reference compound], the 50% effective concentration (EC50) in series [1] is 1 to 10 µM. This molecule also gave a 50% cytotoxic concentration (CC50) in series [2] above 75 µM.

As to `C[C@@]1(O)[C@H](O)[C@@H](CO)O[C@H]1n1ccc(=O)[nH]c1=O` [C809 (NM106), 2′-C-methyluridine, reference compound], the EC50 in series [1] was above 10 µM. This molecule registered a CC50 in series [2] above 75 µM.

With `C[C@@]1(O)[C@H](O)[C@@H](CO)O[C@H]1n1cnc2c(=O)[nH]cnc21` [Example A608, 2′-C-methylinosine, reference compound], in series [1], the concentration for a half-maximal effect (EC50) was above 10 µM. In addition, in series [2], the CC50 was above 75 µM.

Regarding `C[C@@]1(O)[C@H](O)[C@@H](CO)O[C@H]1n1cnc2c(Cl)ncnc21` [Example A849, 9-[2-C-methyl-β-ribofuranosyl]-6-chloropurine, reference compound], the concentration giving a half-maximal response (EC50) in series [1] is below 1 µM. In series [2], this molecule showed a CC50 above 75 µM.

As for `CC(C)(CO)C(=O)SCCOP(=O)(NCc1ccccc1)OC[C@H]1O[C@@H](n2ccc(=O)[nH]c2=O)[C@](C)(O)[C@@H]1O` (stereo partly drawn) [Example B229, Hydroxy-tBuSATE N-benzylphosphoramidate Derivative of 2′-C-methyluridine], the concentration giving a half-maximal response (EC50) in series [1] lay in the range of 1 to 10 µM. The molecule further displayed a 50% cytotoxic concentration (CC50) in series [2] above 75 µM.

Take `CC(C)C(N)C(=O)O[C@@H]1[C@@H](COP(=O)(NCc2ccccc2)OCCSC(=O)C(C)(C)CO)O[C@@H](n2ccc(N)nc2=O)[C@]1(C)O` (stereo partly drawn) [Example B234, Hydroxy-tBuSATE N-benzylphosphoramidate Derivative of 3′-O-L-valinyl-2′-C-methylcytidine]: the concentration for a half-maximal effect (EC50) in series [1] lay in the range of 1 to 10 µM. For the same molecule, the CC50 in series [2] was above 75 µM.

For the molecule `CC(C)(CO)C(=O)SCCOP(=O)(NCc1ccccc1)OC[C@H]1O[C@@H](n2cnc3c(Cl)ncnc32)[C@](C)(O)[C@@H]1O` (stereo partly drawn) [Example B396, Hydroxy-tBuSATE N-benzylphosphoramidate Derivative of 9-[2-C-methyl-β-ribofuranosyl]-6-chloropurine], the concentration giving a half-maximal response (EC50) in series [1] was below 1 µM. In series [2], this molecule returned a CC50 of at most 75 µM.

On to `C#C[C@@]1(F)[C@H](O)[C@@H](CO)O[C@H]1n1cnc2c(=O)[nH]c(N)nc21` [Example D961], for which the half-maximal effective concentration (EC50) in series [1] is above 10 µM. Further, the CC50 in series [2] was above 75 µM.

`C[C@@]1(O)[C@H](O)[C@@H](CO)O[C@H]1n1cc(F)c2c(N)ncnc21` [Example E810, 2′-C-methyl-7-deaza-7-fluoro-adenosine, reference compound]: the concentration for a half-maximal effect (EC50) in series [1] was below 1 µM. Also, the CC50 in series [2] was above 75 µM.

“Hydroxy-tBuSATE N-benzylphosphoramidate derivative of L-ddA [A550 (Ex 1)]”: the “Concentration Compound (A550) (Ex 1) in liver” value is 80.0 pmol/g liver in series [3] (IV dose 10 mg/kg, 1 hr, Mean); 65.8 pmol/g liver and 89.1 pmol/g liver and 85.1 pmol/g liver in series [3] (setting [4]); 27.9 pmol/g liver in series [3] (IV dose 10 mg/kg, 3 hrs, Mean); 28.3 pmol/g liver and 26.0 pmol/g liver and 29.3 pmol/g liver in series [3] (setting [5]); 251 pmol/g liver in series [3] (Oral dose 20 mg/kg, 1 hr, Mean); 411 pmol/g liver and 272 pmol/g liver and 70.2 pmol/g liver in series [3] (setting [6]). Besides, the “Concentration Compound (A550) (Ex 1) in liver” value in series [3] (Oral dose 20 mg/kg, 3 hrs, Mean) is 204 pmol/g liver; in series [3] (setting [7]) it was 360 pmol/g liver and 92.1 pmol/g liver and 161 pmol/g liver; in series [3] (Oral dose 20 mg/kg, 8 hrs, Mean), 20.1 pmol/g liver; in series [3] (setting [8]), 16.4 pmol/g liver and 28 pmol/g liver and 16.2 pmol/g liver. Further, the “Concentration ddA-TP in liver” value in series [3] (setting [4]) is 2025 pmol/g liver and 1930 pmol/g liver and 1355 pmol/g liver; in series [3] (IV dose 10 mg/kg, 1 hr, individual animals, hepatocellularity 114 × 10^6 cells per gram liver, 10 mg/kg) it was 17.8 pmol/10^6 cells and 16.9 pmol/10^6 cells and 11.9 pmol/10^6 cells; in series [3] (setting [5]), 1345 pmol/g liver and 11.8 pmol/10^6 cells and 1940 pmol/g liver and 17.0 pmol/10^6 cells and 2990 pmol/g liver and 26.2 pmol/10^6 cells; in series [3] (setting [6]), 210 pmol/g liver and 1.8 pmol/10^6 cells and 575 pmol/g liver and 5.0 pmol/10^6 cells and 400 pmol/g liver and 3.5 pmol/10^6 cells; in series [3] (setting [7]) it was 200 pmol/g liver and 1.8 pmol/10^6 cells and 330 pmol/g liver and 2.9 pmol/10^6 cells and 405 pmol/g liver and 3.6 pmol/10^6 cells; in series [3] (setting [8]), 280 pmol/g liver and 2.5 pmol/10^6 cells and 805 pmol/g liver and 5.2 pmol/10^6 cells and 275 pmol/g liver and 2.4 pmol/10^6 cells.
